The values below come from patent publication US20050124664A1, “Urea thiadiazole inhibitors of plasminogen activator inhibior-1” (priority 2003, published 2005).

As usually defined, the melting point is the temperature of the solid-liquid transition.

For `COC(=O)c1ccc(NC(=O)Nc2nnc(-c3cc(Cl)cc(Cl)c3O)s2)cc1` [Example 4, 4-{3-[5-(3,5-Dichloro-2-hydroxy-phenyl)-[1,3,4]thiadiazol-2-yl]-ureido}-benzoic Acid Methyl Ester], the melting point worked out at 330 °C.
For `COC(=O)c1cccc(NC(=O)Nc2nnc(-c3cc(Cl)cc(Cl)c3O)s2)c1` [Example 3, 3-{3-[5-(3,5-Dichloro-2-hydroxy-phenyl)-[1,3,4]thiadiazol-2-yl]-ureido}-benzoic Acid Methyl Ester], the melting point was 305 °C.
